Measured values from article PMC5064002, “Sintokamide A Is a Novel Antagonist of Androgen Receptor That Uniquely Binds Activation Function-1 in Its Amino-terminal Domain” (The Journal of Biological Chemistry, 2016).
Where two headings read alike, the source gives them in different places.

What was measured:
Tau5 = system: Tau5; parameters: method as in PMID 27356095; settings: contact to residues 353–364, 397–407 and 433–466; cited from earlier work
AR [1] = target: T1, AR (Homo sapiens, UniProt P10275, T878A); parameters: method as in PMID 23722902; settings: cited from earlier work
T1 construct: endogenous in cells; host or cells: LNCaP
T1 sequence (P10275 1-920 T878A): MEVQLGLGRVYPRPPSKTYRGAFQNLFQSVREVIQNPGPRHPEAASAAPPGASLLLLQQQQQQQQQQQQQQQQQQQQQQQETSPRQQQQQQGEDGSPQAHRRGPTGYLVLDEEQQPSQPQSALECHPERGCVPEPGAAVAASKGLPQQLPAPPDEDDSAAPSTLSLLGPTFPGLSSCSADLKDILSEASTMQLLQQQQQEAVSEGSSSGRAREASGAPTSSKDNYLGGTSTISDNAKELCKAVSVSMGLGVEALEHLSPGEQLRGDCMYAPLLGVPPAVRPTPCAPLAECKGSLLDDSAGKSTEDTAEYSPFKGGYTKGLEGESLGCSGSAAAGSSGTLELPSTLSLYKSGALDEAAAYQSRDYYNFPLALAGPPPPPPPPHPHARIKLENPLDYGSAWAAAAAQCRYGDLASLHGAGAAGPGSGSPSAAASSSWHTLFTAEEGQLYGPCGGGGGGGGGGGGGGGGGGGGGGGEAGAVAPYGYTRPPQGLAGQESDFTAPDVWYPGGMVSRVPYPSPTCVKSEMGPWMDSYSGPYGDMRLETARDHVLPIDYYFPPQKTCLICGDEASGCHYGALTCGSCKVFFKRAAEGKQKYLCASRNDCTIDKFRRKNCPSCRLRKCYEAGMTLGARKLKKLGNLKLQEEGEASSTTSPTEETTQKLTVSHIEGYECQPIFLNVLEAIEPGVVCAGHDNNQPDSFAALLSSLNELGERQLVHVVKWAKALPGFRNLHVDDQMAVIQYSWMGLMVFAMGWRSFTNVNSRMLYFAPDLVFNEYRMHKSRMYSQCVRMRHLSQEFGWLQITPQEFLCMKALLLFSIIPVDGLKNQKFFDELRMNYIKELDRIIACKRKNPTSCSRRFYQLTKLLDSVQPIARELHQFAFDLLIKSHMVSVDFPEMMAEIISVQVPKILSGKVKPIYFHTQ

endogenous FL-AR = target: T2, endogenous FL-AR (Homo sapiens, UniProt P10275, T878A); assay: Binding assay of click chemistry probes to full-length AR in LNCaP cells; settings: 20 μM LPY probes or 25 μM EPI-053, click chemistry, Western blot
T2 construct: endogenous in cells; host or cells: LNCaP
T2 sequence (P10275 1-920 T878A): T1 sequence (P10275 1-920 T878A)
Method: LNCaP cells were treated for 24 h with 20 μM modified SINT1 (LPY19, -30, and -31) or the vehicle dimethyl sulfoxide (DMSO). 25 μM EPI-053 (a modified EPI-001 analog) was used as positive control ([5]). Proteins were extracted with lysis buffer and subjected to click chemistry conditions for 3 h at 25 °C in buffer containing 0.1% SDS, 5% t-butyl alcohol, 100 μM tris[(1-benzyl-1H-1,2,3-triazol-4-yl)methyl]amine (Sigma), 1 mM tris(2-carboxyethyl)phosphine, 100 μM biotin-azide reagent, and 1 mM CuSO4. Samples were dialyzed in 50 mM HEPES, pH 8.0, 150 mM NaCl, 0.1% SDS, and 1% Triton X-100 to remove excess biotin-azide reagent. Biotinylated soluble receptors were captured with streptavidin-agarose resin. Protein-SINT1 complexes were separated by 10% SDS-PAGE and subjected to Western blotting analysis using AR-N20 (1:1000) and biotin (1:1000) antibodies. Proteins were visualized using ECL detection reagent (Amersham Biosciences).
To reveal whether SINT1 binds to endogenous AR, LNCaP cells were incubated with modified SINT1 click chemistry probes (LPY19, LPY30, and LPY31 shown in Fig. 2A). The EPI-002 click chemistry probe EPI-053 was used as a positive control ([5]). […] LNCaP cells were incubated overnight with these probes prior to click chemistry to add biotin to each click chemistry probe (see schema in Fig. 2B, right). Cell lysates were used for immunoprecipitation with streptavidin to isolate those proteins bound to biotinylated probes. Immunocomplexes were split with one aliquot used for Western blotting analysis using an antibody to biotin (Fig. 2B, left) and the other aliquot for Western blotting analysis using an antibody to AR (Fig. 2B, middle). […] Consistent with these biotin bands corresponding to AR, the AR was immunoprecipitated with streptavidin only in those immunocomplexes that were both positive for biotin (Fig. 2B) and biologically active against AR transcriptional activity (EPI-053, LPY30, and LPY31).

AR [2] = target: T1, AR; assay: AR transcriptional activity of SINT1 click chemistry probes, PSA (6.1 kb)-luciferase in LNCaP cells; type: cell-based; settings: for biological activity measured using an AR-driven reporter gene construct: 40 μM LPY19, 20 μM LPY30 and LPY31
Method: FIGURE 2. SINT1 binds endogenous AR in living cells to inhibit transactivation of AR NTD. A, chemical structures of EPI-002, EPI-053, LPY19, LPY30, LPY31, and SINT1 (left). The effect of SINT1 probes in AR transcriptional activity was tested in LNCaP cells transiently transfected with PSA (6.1 kb)-luciferase and exposed for 1 h to 40 μM LPY19 and 20 μM LPY30 and LPY31 before induction with 1 nM […] for 48 h. Error bars represent the mean ± S.E. of n = 3 independent experiments with triplicate wells (right). B, binding of SINT1 click chemistry analogs to FL-AR in cells. LNCaP cells were exposed to modified SINT1 (LPY19, -30, and -31), EPI-053, or DMSO vehicle overnight prior to preparing whole cell lysates for click chemistry reactions. Biotinylated SINT1 or EPI probes bound to proteins were captured with streptavidin-agarose resin prior to separation by 10% SDS-PAGE and subjected to Western blotting analysis with antibodies directed to either biotin (left) or AR (middle). Red boxes highlight where AR migrates on the gel. Right, schema of experiment. […] Right, schema of experiment.

[3] = target: T3, Histidine-tagged AR AF-1 recombinant protein (Homo sapiens, UniProt P10275); assay: Binding assay of click chemistry probes to recombinant AR AF-1; settings: cell-free, AF1-His tag, 1:10 molar ratio, 37 °C 3 h
T3 construct: made in house
T3 sequence (P10275 142-485): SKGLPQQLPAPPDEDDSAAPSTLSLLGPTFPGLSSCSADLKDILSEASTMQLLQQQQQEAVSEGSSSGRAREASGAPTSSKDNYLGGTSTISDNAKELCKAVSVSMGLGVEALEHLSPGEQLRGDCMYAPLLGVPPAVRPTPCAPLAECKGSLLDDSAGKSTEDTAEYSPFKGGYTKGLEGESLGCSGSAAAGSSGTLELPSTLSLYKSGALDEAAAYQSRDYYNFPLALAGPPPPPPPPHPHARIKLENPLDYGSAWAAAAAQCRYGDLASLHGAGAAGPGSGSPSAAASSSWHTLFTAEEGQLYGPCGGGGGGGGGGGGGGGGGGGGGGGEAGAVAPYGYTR
Method: Histidine-tagged AR AF-1 recombinant protein was expressed and purified as described ([5]). The binding reaction was carried out by mixing AR AF-1 protein with alkyne-containing LPY probes or DMSO at a 1:10 molar ratio and incubated in buffer containing 10 mM HEPES, pH 7.9, and 100 mM NaCl at 37 °C for 3 h. LPY probes were labeled with biotin by copper-catalyzed click chemistry reaction at 25 °C for 1 h ([5]). Samples were resolved by 10% SDS-PAGE, and Western blotting was performed to detect biotin and histidine-tagged AR AF-1 using IRDye® 680LT streptavidin (1:5000) and anti-His (1:1000) antibody, respectively.
Therefore, we next evaluated whether SINT1 binds the AF-1 region in AR NTD. Purified recombinant AF-1 protein (AF1-His tag) was incubated under cell-free conditions with LPY19, LPY30, and LPY31 prior to click chemistry to add a biotin to the LPY probe (see schema in Fig. 2C, right).

[4] = target: T4, progesterone receptor (PR)-β (Homo sapiens, UniProt P06401); assay: Steroid receptor specificity: PRE-luciferase reporter in LNCaP cells; type: cell-based; settings: 10 μM compound, 10 nM 4-pregnene-3,20-dione, 48 h
T4 construct: expressed in transfected cells; host or cells: LNCaP
T4 sequence (P06401 1-933): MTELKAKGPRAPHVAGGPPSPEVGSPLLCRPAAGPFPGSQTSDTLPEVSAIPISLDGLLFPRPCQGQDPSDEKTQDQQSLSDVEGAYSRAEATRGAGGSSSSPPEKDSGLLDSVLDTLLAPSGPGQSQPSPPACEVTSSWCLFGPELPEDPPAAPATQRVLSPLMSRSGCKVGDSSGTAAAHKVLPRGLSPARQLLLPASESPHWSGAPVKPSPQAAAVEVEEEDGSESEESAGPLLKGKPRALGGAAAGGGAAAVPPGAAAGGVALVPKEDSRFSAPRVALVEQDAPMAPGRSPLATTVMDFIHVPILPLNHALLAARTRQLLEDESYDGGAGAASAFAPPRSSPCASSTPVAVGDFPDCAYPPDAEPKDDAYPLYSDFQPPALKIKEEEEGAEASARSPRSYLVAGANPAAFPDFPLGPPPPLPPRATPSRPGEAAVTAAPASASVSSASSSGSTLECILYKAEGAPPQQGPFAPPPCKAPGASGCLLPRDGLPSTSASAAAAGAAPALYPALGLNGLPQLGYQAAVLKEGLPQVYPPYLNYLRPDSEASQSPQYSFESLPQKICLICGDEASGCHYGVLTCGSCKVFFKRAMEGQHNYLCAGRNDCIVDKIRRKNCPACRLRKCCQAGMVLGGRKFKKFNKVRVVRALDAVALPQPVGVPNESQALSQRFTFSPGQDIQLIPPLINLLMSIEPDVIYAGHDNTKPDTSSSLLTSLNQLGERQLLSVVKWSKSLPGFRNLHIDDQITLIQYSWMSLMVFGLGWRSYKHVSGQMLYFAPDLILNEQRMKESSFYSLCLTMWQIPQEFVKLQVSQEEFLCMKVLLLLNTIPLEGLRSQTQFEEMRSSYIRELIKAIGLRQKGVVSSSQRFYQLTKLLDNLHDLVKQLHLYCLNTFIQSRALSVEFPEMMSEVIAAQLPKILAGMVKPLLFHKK
Method: LNCaP cells were transfected with the reporter plasmid PSA(6.1kb)-luciferase, PRE-luciferase, or GRE-luciferase and expression vector for progesterone receptor (PR)-β or glucocorticoid receptor (GR)-α in serum-free, phenol red-free medium using Lipofectin (Invitrogen). […] After 48 h of treatment, cells were lysed and analyzed for luciferase activities.
FIGURE 1. […] A, LNCaP cells were transfected with PSA (6.1 kb)-luciferase, PRE-luciferase, or GRE-luciferase reporters and expression vector for PRβ or GRα. […] Error bars represent mean percentage of vehicle activity ±S.E. of at least three independent experiments with triplicate wells. SINT1, 10 μM; […]; ***, p < 0.001. […]. Error bars represents mean ± S.E. of three technical replicates. […] DAPI staining indicates the location of the nucleus. Scale bars, 20 μm.

LNCaP95 cells = assay: Cell proliferation (BrdU incorporation), LNCaP95; type: cell-based; settings: 48 h
Method: Cells were pulse-labeled with 10 μM BrdU for 2 h. Cells were fixed, and BrdU-labeled cells were identified with anti-BrdU-peroxidase (Roche Applied Science). BrdU incorporation was measured at 570 nm using a VersaMax ELISA microplate reader (Molecular Devices). At least three independent experiments with six technical replicates were analyzed, and average values are indicated.

[5] = LNCaP, PSA (6.1 kb)-luciferase, 1 nM R1881 48 h

Row | Structure (SMILES) | binding to endogenous FL-AR (biotin band corresponding to AR after streptavidin capture) (endogenous FL-AR) | biological activity measured using an AR-driven reporter gene construct (AR [2]; [5]) | binding of biotinylated probe to AF-1 [3] | other results
1 | CC(C)(c1ccc(OCC(O)CO)cc1)c1ccc(OCC(O)CCl)cc1 (stereo not drawn) [EPI-001] | – | – | – | binding to Tau5 by NMR spectroscopy (Tau5): binds in a pocket in Tau5
2 | C#CCOC[C@H](O)COc1ccc(C(C)(C)c2ccc(OC[C@H](O)CCl)cc2)cc1 [EPI-053, reference compound] | a band corresponding to AR | – | – | biological activity measured using an AR-driven reporter gene construct (AR [1]): had biological activity
3 | C#CCCC(=O)N[C@H](CC(C)C)C(=O)N1C(=O)C=C(OC)[C@@H]1CC(C)C [LPY19] | not | very weak activity | no binding | activity at 20 μM, AR-driven reporter (AR [2]; 20 μM): inactive; IC50 (AR [2]; LNCaP, PSA (6.1 kb)-luciferase, 1 nM R1881 48 h, read-out: IC50, AR-driven reporter gene construct): ~40 µM
4 | C#CCCC(=O)NC(CCC(Cl)(Cl)Cl)C(=O)N1C(=O)C=C(OC)C1CCC(Cl)(Cl)Cl (stereo not shown) [LPY30] | a band corresponding to AR | had biological activity | binding | –
5 | CC(O)(CS(=O)(=O)c1ccc(F)cc1)C(=O)Nc1ccc(C#N)c(C(F)(F)F)c1 (stereo not shown) [bicalutamide, reference compound] | – | – | – | PR transcriptional activity (PRE-luciferase) [4]: inhibited; proliferation of LNCaP95 cells (LNCaP95 cells): no effect
